The assay concerns virulent Mtb strain H37Rv. Format: cell-based, Mycobacterium tuberculosis.

From patent US20160113919A1 (The Board of Trustees of the Leland Stanford Junior …, priority 2014, published 2016) come the findings set out here.

In the case of `CCN(CC)CCCC(C)Nc1ccnc2cc(Cl)ccc12` (racemic) [racemic CQ, chloroquine], the “EC80 (microbicidal activity, TB replication in macrophages)” value (“EC80” for short) is about 10 µM.
With `CCN(CC)CCC[C@@H](C)Nc1ccnc2cc(Cl)ccc12` [R-CQ, (R)-chloroquine], the “EC80” value stood at 1 µM and the “microbicidal activity compared with S-CQ or racemic CQ” value is on record as “significantly higher”.
For the compound `CCN(CC)CCC[C@H](C)Nc1ccnc2cc(Cl)ccc12` [S-CQ, (S)-chloroquine], the “EC80” value is about 10 µM.
